We go through 3 compounds from patent publication US20260021061A1, “ARIADNE AND ANALOGS FOR THE TREATMENT OF NEUROLOGICAL AND NEUROMUSCLAR DISORDERS” (priority 2022, published 2026).

SMILES strings stand for the structures. Like-named read-outs stand apart in the source and are kept apart here.

The target of assay [1] is T1, 5-HT2A (Homo sapiens, UniProt P28223). In words: G protein (Gq) dissociation BRET assay. The assay is classed as cell-based. More on the design: host or cells: HEK293T (ATCC CRL-11268). A general note: Bioluminescence resonance energy transfer reports proximity on the nanometre scale.
In the next assay the test system is C57BL/6J mice. The assay can be described thus: Head twitch response (HTR) in mice. It counts as in vivo, mouse. The conditions noted are these: for HTR in presence of MDL100,907 (volinanserin), 5-HT2A antagonist: mouse, in vivo. Here is the method: All samples were prepared the same day testing was performed. Solids were weighed into small vials and dissolved in USP grade 0.85% saline with addition of 2 molar equivalents of glacial acetic acid. Sonication and gentle heating were applied until complete dissolution. The compounds were subsequently filtered through 0.45 μm filters into a new glass vial. All compounds were administered at a 1 mg/kg subcutaneous dose at a volume of 10 mL/kg of body weight. Volinanserin hydrochloride salt (MDL 100907) was purchased from Toronto Research Chemicals.
All experimental procedures involving animals were approved by an Institutional Animal Care and Use Committee (IACUC) and adhered to principles described in the National Institutes of Health Guide for the Care and Use of Laboratory Animals. The studies were conducted at AAALAC accredited facilities. Animals received regular veterinary care (weekly by institutional veterinarians) including daily health monitoring (by experimenters) of the animals (observing home cage behaviors, nesting, and body weight). All procedures were designed to minimize any stress/distress. Healthy adult male mice C57BL/6J (8-12 weeks, 26-33 g) were purchased from the Jackson Laboratory (Bar Harbor, ME) and housed 5 mice per cage with food and water available ad libitum. Mice were maintained on a 12-h light/dark cycle (lights on 7:00-19:00) and all testing was done in the light cycle. Temperature was kept constant at 22±2° C., and relative humidity was maintained at 50±5%
The head-twitch response evaluation was performed by a trained observer who was blinded to both drug and dose. Mice were moved to the testing room 30 min before the experiment to allow for acclimation. The body weight of each mouse was recorded. Mice were administered either a 1, 3, 10, or 30 mg/kg s.c. dose of compound solution (volume of injection 260-330 μL based on body weight). […] The total number of head-twitches over the 15 minute period were recorded. Five mice were used per dose.
DOI was tested at the doses of 0.3, 1, 3, and 10 mg/kg (s.c., 5 mice per dose) and testing began immediately after administration of the compound. Ariadne was tested at the doses of 1, 3, 10, and 30 mg/kg (s.c., 5 mice per dose) and there was a 10 min interval between treatment and testing.

A further assay deals with 5-HT6 receptor (Homo sapiens, UniProt P50406). The assay can be described thus: 5-HTome G protein activation BRET assay. The conditions noted are these: for agonist activity: 5-HTome screen.
For a further assay, the target named is 5-HT4 receptor (Homo sapiens, UniProt Q13639). The assay can be described thus: 5-HTome G protein activation BRET assay. The conditions noted are these: 5-HTome screen.
The next assay concerns the target 5-HT2B (Homo sapiens, UniProt P41595). In words: G protein (Gq) dissociation BRET assay. The conditions noted are these: for Emax: read-out: Emax, agonist activity.
The target in a further assay is T2, 5-HT2C receptor (Homo sapiens, UniProt P28335).
T2 sequence (P28335 33-458): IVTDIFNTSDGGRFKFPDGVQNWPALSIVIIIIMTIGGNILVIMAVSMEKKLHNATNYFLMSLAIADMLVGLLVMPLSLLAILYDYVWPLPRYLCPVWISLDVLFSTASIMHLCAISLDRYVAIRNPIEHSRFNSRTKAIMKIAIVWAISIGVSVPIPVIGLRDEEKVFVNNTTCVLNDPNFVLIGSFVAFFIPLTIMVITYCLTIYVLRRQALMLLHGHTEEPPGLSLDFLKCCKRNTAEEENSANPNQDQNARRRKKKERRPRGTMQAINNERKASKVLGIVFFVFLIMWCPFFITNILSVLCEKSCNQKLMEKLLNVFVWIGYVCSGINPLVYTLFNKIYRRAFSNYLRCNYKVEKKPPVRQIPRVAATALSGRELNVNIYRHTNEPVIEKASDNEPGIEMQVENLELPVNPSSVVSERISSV
The assay can be described thus: G protein (Gq) dissociation BRET assay. The conditions noted are these: for Emax: read-out: Emax, agonist activity.

A further assay has as its target 5-HT7a receptor (Homo sapiens, UniProt P34969). The assay can be described thus: 5-HTome G protein activation BRET assay. The conditions noted are these: for agonist activity: 5-HTome screen.
Assay [2] concerns the target T1, 5-HT2A. In words: Radioligand displacement assay. It counts as binding. For orientation: Loss of bound radioactivity is the signal in a displacement assay; it reports binding, not function.
Experimental: Therefore, an orthogonal assay measuring calcium flux was also performed for the 5-HT2 receptors (Klein et al., 2020).
In a further assay the target is 5-HT5a receptor (Homo sapiens, UniProt P47898). In words: 5-HTome G protein activation BRET assay. The conditions noted are these: for agonist activity: 5-HTome screen.
A further assay deals with 5-HT1E receptor (Homo sapiens, UniProt P28566). In words: 5-HTome G protein activation BRET assay.
Where [3] appears, read: EC50, Gq dissociation, Gq dissociation BRET.
The mark [4] stands for this setting: EC50, agonist activity, 5-HTome screen.
[5] abbreviates: 5-HTome screen, read-out: Emax, agonist activity.
Setting [6] is: EC50 (EC50/Gq), Gq dissociation, Gq dissociation BRET.

Usually EC50 stands for the concentration needed to bring the measured effect to its halfway point. By Ki is commonly meant a dissociation constant, usually derived from enzyme kinetics or from competition with a known ligand. A higher Ki goes with lower affinity.

Sequence of 5-HT6 receptor (P50406 whole entry): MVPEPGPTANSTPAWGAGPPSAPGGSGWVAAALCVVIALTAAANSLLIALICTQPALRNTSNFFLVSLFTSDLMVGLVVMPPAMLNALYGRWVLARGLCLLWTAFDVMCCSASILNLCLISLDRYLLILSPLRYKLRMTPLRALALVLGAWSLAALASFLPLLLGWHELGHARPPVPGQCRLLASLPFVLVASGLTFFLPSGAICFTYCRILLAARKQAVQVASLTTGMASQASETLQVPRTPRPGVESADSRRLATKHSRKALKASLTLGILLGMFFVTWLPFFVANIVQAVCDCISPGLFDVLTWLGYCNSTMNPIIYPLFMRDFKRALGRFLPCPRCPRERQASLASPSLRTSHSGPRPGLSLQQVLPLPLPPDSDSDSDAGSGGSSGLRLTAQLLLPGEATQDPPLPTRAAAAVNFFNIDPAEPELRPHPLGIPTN
Sequence of 5-HT5a receptor (P47898 whole entry): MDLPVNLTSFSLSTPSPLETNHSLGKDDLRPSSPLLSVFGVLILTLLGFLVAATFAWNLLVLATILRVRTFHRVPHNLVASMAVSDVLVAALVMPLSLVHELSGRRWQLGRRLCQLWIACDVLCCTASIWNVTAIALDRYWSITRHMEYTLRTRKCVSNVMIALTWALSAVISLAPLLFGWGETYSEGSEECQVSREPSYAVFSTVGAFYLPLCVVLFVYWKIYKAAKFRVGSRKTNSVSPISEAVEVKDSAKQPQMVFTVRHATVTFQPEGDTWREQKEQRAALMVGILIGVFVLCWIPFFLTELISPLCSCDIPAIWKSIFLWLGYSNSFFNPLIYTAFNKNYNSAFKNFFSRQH
Sequence of 5-HT2B (P41595 whole entry): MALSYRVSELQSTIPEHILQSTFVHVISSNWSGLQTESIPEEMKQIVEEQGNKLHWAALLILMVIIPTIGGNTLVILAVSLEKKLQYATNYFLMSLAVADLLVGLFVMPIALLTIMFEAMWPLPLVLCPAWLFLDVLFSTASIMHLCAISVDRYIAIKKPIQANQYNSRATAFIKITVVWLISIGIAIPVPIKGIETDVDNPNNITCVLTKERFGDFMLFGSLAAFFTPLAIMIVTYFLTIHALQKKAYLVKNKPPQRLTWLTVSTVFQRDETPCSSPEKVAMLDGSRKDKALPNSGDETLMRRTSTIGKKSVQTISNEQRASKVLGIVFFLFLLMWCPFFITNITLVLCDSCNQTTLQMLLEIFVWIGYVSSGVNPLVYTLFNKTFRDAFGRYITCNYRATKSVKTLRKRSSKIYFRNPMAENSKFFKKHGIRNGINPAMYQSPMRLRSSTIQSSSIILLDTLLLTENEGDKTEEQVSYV
Sequence of 5-HT1E receptor (P28566 whole entry): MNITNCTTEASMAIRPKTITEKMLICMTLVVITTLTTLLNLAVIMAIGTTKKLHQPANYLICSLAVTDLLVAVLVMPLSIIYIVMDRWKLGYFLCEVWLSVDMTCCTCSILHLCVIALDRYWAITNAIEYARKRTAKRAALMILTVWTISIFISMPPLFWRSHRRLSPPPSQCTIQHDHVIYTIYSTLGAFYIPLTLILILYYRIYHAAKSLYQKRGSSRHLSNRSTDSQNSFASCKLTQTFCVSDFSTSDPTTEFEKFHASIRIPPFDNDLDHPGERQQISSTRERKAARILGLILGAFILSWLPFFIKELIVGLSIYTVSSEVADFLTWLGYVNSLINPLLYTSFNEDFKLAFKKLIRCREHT
T1 sequence (P28223 whole entry): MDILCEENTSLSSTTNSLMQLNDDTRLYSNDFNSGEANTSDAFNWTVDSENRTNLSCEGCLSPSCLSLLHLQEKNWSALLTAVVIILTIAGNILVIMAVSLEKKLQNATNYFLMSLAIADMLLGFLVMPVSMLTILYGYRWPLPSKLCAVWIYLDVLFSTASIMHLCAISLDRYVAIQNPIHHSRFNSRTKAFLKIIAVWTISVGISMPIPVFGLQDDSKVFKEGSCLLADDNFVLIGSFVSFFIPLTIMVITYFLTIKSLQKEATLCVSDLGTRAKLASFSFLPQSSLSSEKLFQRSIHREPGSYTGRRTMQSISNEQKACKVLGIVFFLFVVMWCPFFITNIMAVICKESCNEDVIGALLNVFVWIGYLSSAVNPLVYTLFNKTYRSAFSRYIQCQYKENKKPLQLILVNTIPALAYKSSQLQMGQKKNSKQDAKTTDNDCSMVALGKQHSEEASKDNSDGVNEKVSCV
Sequence of 5-HT7a receptor (P34969 1-445 isoform P34969-2): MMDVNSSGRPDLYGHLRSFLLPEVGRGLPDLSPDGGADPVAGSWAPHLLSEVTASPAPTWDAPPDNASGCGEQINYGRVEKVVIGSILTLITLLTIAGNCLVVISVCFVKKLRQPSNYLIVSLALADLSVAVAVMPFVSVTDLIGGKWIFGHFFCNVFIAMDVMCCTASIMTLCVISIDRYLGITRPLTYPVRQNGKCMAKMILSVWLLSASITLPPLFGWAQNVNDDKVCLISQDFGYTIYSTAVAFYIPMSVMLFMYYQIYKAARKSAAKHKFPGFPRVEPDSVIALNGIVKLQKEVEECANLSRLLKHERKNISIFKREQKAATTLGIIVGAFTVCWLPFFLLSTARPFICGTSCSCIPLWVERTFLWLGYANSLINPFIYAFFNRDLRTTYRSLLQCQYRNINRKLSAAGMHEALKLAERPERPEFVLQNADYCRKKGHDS
Sequence of 5-HT4 receptor (Q13639 whole entry): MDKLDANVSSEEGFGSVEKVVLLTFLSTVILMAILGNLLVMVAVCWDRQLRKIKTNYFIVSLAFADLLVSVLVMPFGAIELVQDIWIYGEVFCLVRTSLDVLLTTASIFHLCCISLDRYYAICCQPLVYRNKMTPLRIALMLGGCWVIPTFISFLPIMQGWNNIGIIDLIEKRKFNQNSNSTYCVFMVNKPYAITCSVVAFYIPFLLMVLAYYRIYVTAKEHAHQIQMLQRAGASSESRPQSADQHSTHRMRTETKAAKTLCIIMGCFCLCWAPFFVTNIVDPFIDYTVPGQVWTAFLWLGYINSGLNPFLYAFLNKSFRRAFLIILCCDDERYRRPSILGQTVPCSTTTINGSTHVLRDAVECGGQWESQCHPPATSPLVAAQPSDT
Experimental for 5-HT1E receptor: (§1) All BRET assays were conducted using BRET2 in HEK293T cells (ATCC CRL-11268; mycoplasma-free), which were subcultured in high-glucose DMEM (VWR) supplemented with 10% FBS (Life Technologies).
(§2) Constructs in G protein-dissociation BRET assays were derived from the codon-optimized Tango pcDNA3.1 library (Addgene) with V2tail/TEV/tTA encoding regions deleted to yield “de-Tango” constructs. […] All Gα-Rluc8, Beta, and GFP2-γ constructs were derived from the TRUPATH pcDNA5/FRT/TO library (Addgene).
(§3) Approximately 48 hours before assays, cells were transfected using a reverse transfection method and plated in 1% dFBS at an approximate density of 15,000 cells per well into poly-L-lysine-coated 384-well white assay plates (Grenier Bio-One). For G protein-dissociation assays, cells were transfected in a 1:1:1:1 ratio of receptor: Gα-Rluc8: Beta: GFP2-γ constructs. […] All transfections were prepared in Opti-MEM (Invitrogen) and used a 3:1 ratio of TransIT-2020 (Mirus) uL:ug total DNA.
(§4) On the day of the assay, plates were decanted and 20 uL of drug buffer per well (1×HBSS, 20 mM HEPES, pH 7.4) was added using a Multidrop (ThermoFisher Scientific), and plates were allowed to equilibrate at 37° C. in a humidified incubator before receiving drug stimulation. Drug dilutions of all compounds were performed in McCorvy buffer (1×HBSS, 20 mM HEPES, pH 7.4, supplemented with 0.3% BSA fatty acid free (GoldBio), and 0.03% ascorbic acid). […] Before reading, addition of coelenterazine 400a (5 uM final concentration; Nanolight Technology) was performed by the [sequence]. Immediately after, plates were read at 400 nm Rluc and fluorescent GFP2 emission at 510 nm for BRET2 at 0.8 second per well using a PheraStarFSX (BMB Lab Tech).
(§5) The BRET ratios of 510/400 luminescence were calculated per well and were plotted as a function of drug concentration using Graphpad Prism 5 or 9 (Graphpad Software Inc., San Diego, CA). Data were normalized to % positive control stimulation and analyzed using nonlinear regression “log(agonist) vs. response” to yield Emax and EC50 parameter estimates.
Experimental for 5-HT2B: as §1, §2, §3
(§6) On the day of the assay, plates were decanted and 20 uL of drug buffer per well (1×HBSS, 20 mM HEPES, pH 7.4) was added using a Multidrop (ThermoFisher Scientific), and plates were allowed to equilibrate at 37° C. in a humidified incubator before receiving drug stimulation. Drug dilutions of all compounds were performed in McCorvy buffer (1×HBSS, 20 mM HEPES, pH 7.4, supplemented with 0.3% BSA fatty acid free (GoldBio), and 0.03% ascorbic acid). […] Next, plates were incubated at 37° C. in a humidified incubator for 60 minutes or specified time point. Before reading, addition of coelenterazine 400a (5 uM final concentration; Nanolight Technology) was performed by the [sequence]. Immediately after, plates were read at 400 nm Rluc and fluorescent GFP2 emission at 510 nm for BRET2 at 0.8 second per well using a PheraStarFSX (BMB Lab Tech).
as §5
Experimental for 5-HT2C receptor: as §1, §2, §3, §6, §5
Experimental for 5-HT4 receptor: as §1
Constructs in G protein-dissociation BRET assays were derived from the codon-optimized Tango pcDNA3.1 library (Addgene) with V2tail/TEV/tTA encoding regions deleted to yield “de-Tango” constructs. […] All Gα-Rluc8, Beta, and GFP2-γ constructs were derived from the TRUPATH pcDNA5/FRT/TO library (Addgene). […]
On the day of the assay, plates were decanted and 20 uL of drug buffer per well (1×HBSS, 20 mM HEPES, pH 7.4) was added using a Multidrop (ThermoFisher Scientific), and plates were allowed to equilibrate at 37° C. in a humidified incubator before receiving drug stimulation. […] Before reading, addition of coelenterazine 400a (5 uM final concentration; Nanolight Technology) was performed by the [sequence]. Immediately after, plates were read at 400 nm Rluc and fluorescent GFP2 emission at 510 nm for BRET2 at 0.8 second per well using a PheraStarFSX (BMB Lab Tech).
The BRET ratios of 510/400 luminescence were calculated per well and were plotted as a function of drug concentration using Graphpad Prism 5 or 9 (Graphpad Software Inc., San Diego, CA). […]
Experimental for 5-HT5a receptor: as §1, §2, §3, §4, §5
Experimental for 5-HT6 receptor: as §1, §2, §3, §4, §5
Experimental for 5-HT7a receptor: as §1, §2, §3, §4, §5

Regarding `CCC(N)Cc1cc(OC)c(C(F)(F)F)cc1OC` (racemic) [Compound 29, 1-(2,5-dimethoxy-4-(trifluoromethyl)phenyl)butan-2-amine], the “selectivity for 5-HT2A over 5-HT2B” value on 5-HT2A [1] (by Gq dissociation signaling potency) is reported as 8 fold. Also, in the assay with C57BL/6J mice, the “HTR in presence of MDL100,907 (volinanserin), 5-HT2A antagonist” value is “completely inhibited”.
Consider `CC[C@@H](N)Cc1cc(OC)c(C)cc1OC` [(R)-Ariadne], for which the agonist activity entry at 5-HT6 receptor, on 5-HT4 receptor, at 5-HT7a receptor and at 5-HT5a receptor was “Little to no agonist activity” in each case. In addition, the EC50 is 739 nM at 5-HT2B (setting [3]); < 1000 nM on 5-HT2B (setting [4]); 149 nM on 5-HT2A [1] (setting [6]); < 1000 nM on 5-HT2A [1] (setting [4]); 249 nM at 5-HT2C receptor (setting [3]); < 1000 nM at 5-HT2C receptor (setting [4]). At 5-HT1E receptor, the EC50 is ~200 nM. Further, the Emax on 5-HT2B is > 70%; at 5-HT2A [1] (setting [5]) it was > 70%; on 5-HT2A [1] (Gq dissociation BRET, normalized to 5-HT, read-out: Emax (Emax/Gq) relative to 5-HT) it was 75%; on 5-HT2C receptor, > 70%; on 5-HT1E receptor, > 70%. Also, the Ki at 5-HT2A [2] was 53 nM. For the same compound, the “HTR in presence of MDL100,907 (volinanserin), 5-HT2A antagonist” value in the assay with C57BL/6J mice was “completely inhibited”. Besides, the “dose of maximum (peak) HTR” value in the assay with C57BL/6J mice (s.c.) turned out to be 10 mg/kg.
Take `CCC(N)Cc1cc(OC)c(C)cc1OC` (racemic) [Compound 32, 1-(2,5-dimethoxy-4-methylphenyl)butan-2-amine]: the EC50 on 5-HT6 receptor is > 10000 nM; at 5-HT2B (setting [4]), < 1000 nM; at 5-HT2A [1] (setting [6]) it was 185 nM; on 5-HT2A [1] (setting [4]), < 1000 nM; at 5-HT2C receptor (setting [4]), < 1000 nM; on 5-HT7a receptor, > 10000 nM. Besides, the EC50 at 5-HT5a receptor was > 10000 nM. For the same compound, the agonist activity result on 5-HT6 receptor, on 5-HT4 receptor, at 5-HT7a receptor and on 5-HT5a receptor was “Little to no agonist activity” throughout. In addition, the Emax at 5-HT2B, at 5-HT2A [1] (setting [5]) and on 5-HT2C receptor was > 70% throughout. In addition, the “signaling potency and efficacy in comparison to DOM” value at 5-HT2A [1] (Gq, G11 and β-arrestin2 pathways coupled to 5-HT2A) was “lower signaling potency and efficacy”. This compound also registered a Ki at 5-HT2A [2] of 120 nM. The “selectivity of 5-HT2 over 5-HT1E and 5-HT1F receptors” value on 5-HT1E receptor (also 5-HT1F) was 0.5-1 log. Further, the “decrease in HTR count per 15 min compared to racemic DOPR” value with C57BL/6J mice (s.c.) is listed as > 3 fold. Further, the “dose of maximum (peak) HTR” value in the assay on C57BL/6J mice (s.c.) was found to be 10 mg/kg.
